Assay results from patent publication US5609875A, “Skin whitening composition” (Fischer Pharmaceuticals Ltd., priority 1994, dated 1997).

System: tyrosinase
Test: In vitro tyrosinase inhibitory activity, colorimeter comparison at 475 nm
Format: biochemical
Description: Test in vitro on the effect of glycolic acid and glycyrrhiza dry extract on tyrosinase inhibitory activity has been carried out based on the Methodology of Maruzene Pharmaceuticals. The anti-tyrosinase activity was investigated by colorimeter comparison at 475 nm and calculated as percentage of the inhibitory activities. (Attached are the results).

% Tyrosinase Inhibition Test 1 (Glycolic acid 0.42 mg/5 ml): 4.86% | % Tyrosinase Inhibition Test 2 (Glycolic acid 0.42 mg/5 ml): 9.12% | % Tyrosinase Inhibition Test 1 (Glycolic acid 0.805 mg/5 ml): 5.64% | % Tyrosinase Inhibition Test 2 (Glycolic acid 0.805 mg/5 ml): 16.11% | % Tyrosinase Inhibition Test 1 (Glycolic acid 1.61 mg/5 ml): 7.60% | % Tyrosinase Inhibition Test 2 (Glycolic acid 1.61 mg/5 ml): 21.32% | % Tyrosinase Inhibition Test 1 (Glycolic acid 7.21 mg/5 ml): 10.74% | % Tyrosinase Inhibition Test 2 (Glycolic acid 7.21 mg/5 ml): 27.81%
SMILES: O=C(O)CO [Glycolic acid]
